The text below walks through data of US7507813B2, “Amorphous cefuroxime axetil and preparation process therefore” (Nanomaterials Technology Pte Ltd., priority 2004, dated 2009).

This series can be described thus: Particle size of the cefuroxime axetil particles (SEM images). The conditions noted are these: amorphous particles from antisolvent precipitation. Format: physicochemical.
With `CO/N=C(\C(=O)N[C@@H]1C(=O)N2C(C(=O)OC(C)OC(C)=O)=C(COC(N)=O)CS[C@H]12)c1ccco1` (some centres unmarked) [Example 5, cefuroxime axetil], the average particle size entry is “about 200 nm”.

With `CO/N=C(\C(=O)N[C@@H]1C(=O)N2C(C(=O)OC(C)OC(C)=O)=C(COC(N)=O)CS[C@H]12)c1ccco1` (some centres unmarked) [Example 2, cefuroxime axetil], the average particle size entry was “about 600 nm”.

As for `CO/N=C(\C(=O)N[C@@H]1C(=O)N2C(C(=O)OC(C)OC(C)=O)=C(COC(N)=O)CS[C@H]12)c1ccco1` (some centres unmarked) [Example 9, cefuroxime axetil], the average particle size entry is on record as “about 500 nm”.

`CO/N=C(\C(=O)N[C@@H]1C(=O)N2C(C(=O)OC(C)OC(C)=O)=C(COC(N)=O)CS[C@H]12)c1ccco1` (some centres unmarked) [Example 10, cefuroxime axetil]: the average particle size entry is recorded as “about 600 nm”.

`CO/N=C(\C(=O)N[C@@H]1C(=O)N2C(C(=O)OC(C)OC(C)=O)=C(COC(N)=O)CS[C@H]12)c1ccco1` (some centres unmarked) [Example 1, cefuroxime axetil]: the average particle size result is “about 500 nm”.

As to `CO/N=C(\C(=O)N[C@@H]1C(=O)N2C(C(=O)OC(C)OC(C)=O)=C(COC(N)=O)CS[C@H]12)c1ccco1` (some centres unmarked) [Example 11, cefuroxime axetil], the average particle size result is on record as “about 1 μm”.

In the case of `CO/N=C(\C(=O)N[C@@H]1C(=O)N2C(C(=O)OC(C)OC(C)=O)=C(COC(N)=O)CS[C@H]12)c1ccco1` (some centres unmarked) [Example 6, cefuroxime axetil], the average particle size result is “about 1 μm”.

For the compound `CO/N=C(\C(=O)N[C@@H]1C(=O)N2C(C(=O)OC(C)OC(C)=O)=C(COC(N)=O)CS[C@H]12)c1ccco1` (some centres unmarked) [Example 8, cefuroxime axetil], the average particle size result is “about 2 μm”.

`CO/N=C(\C(=O)N[C@@H]1C(=O)N2C(C(=O)OC(C)OC(C)=O)=C(COC(N)=O)CS[C@H]12)c1ccco1` (some centres unmarked) [Example 3, cefuroxime axetil]: the average particle size entry is given as “about 1 μm”.

Take `CO/N=C(\C(=O)N[C@@H]1C(=O)N2C(C(=O)OC(C)OC(C)=O)=C(COC(N)=O)CS[C@H]12)c1ccco1` (some centres unmarked) [Example 7, cefuroxime axetil]: the average particle size result is on record as “about 500 nm”.

Turning to `CO/N=C(\C(=O)N[C@@H]1C(=O)N2C(C(=O)OC(C)OC(C)=O)=C(COC(N)=O)CS[C@H]12)c1ccco1` (some centres unmarked) [Example 4, cefuroxime axetil], the average particle size entry is “about 400 nm”.
